Data on 14 compounds can be found in patent US8124794B2, “Method for the asymmetric synthesis of beta-lactone compounds” (Sanford-Burnham Medical Research Institute, priority 2006, dated 2012).

Assay [1] deals with T1, recombinant thioesterase domain of fatty acid synthase (FAS TE) (Homo sapiens, UniProt P49327).
T1 construct: Expression of the recombinant thioesterase domain of FAS was performed as described previously
The assay is described as follows: Fluorogenic assay (4-MUH substrate) for inhibition of recombinant FAS thioesterase domain. Type of assay: biochemical. The text has this: The synthetic fluorogenic substrate, 4-methylumbelliferyl heptanoate (4-MUH), was purchased from Sigma (St. Louis, Mo.). […] Results are the average of triplicate time points.

The test system of assay [2] is cellular fatty acid synthesis. The assay is described as follows: [14C]-acetate incorporation into fatty acids, prostate tumor cells. Type of assay: cell-based. The note with it: level of orlistat inhibiting about 90% of activity-based labeling of FAS. The protocol: Studies were performed to determine the effect of orlistat on tumor cells. As a first step, we measured the ability to inhibit the activity of FAS in whole cells. […] . A concentration-dependent inhibition of labeling by FP-Bodipy was evident (FIG. 2; top panel), indicating enzyme inhibition. […] .
Inhibition of fatty acid synthesis by orlistat.

The subject of another assay is HUVEC. The assay is described as follows: HUVEC proliferation by BrdU incorporation. Type of assay: cell-based, human. The conditions noted are these: for IC50: Homo sapiens, HUVEC, read-out: concentration required for a half maximal effect on proliferation. Here is the method:
The effect of orlistat on HUVEC proliferation induced by several mitogenic stimuli was assessed by BrdU incorporation. Orlistat and mitogen were added simultaneously to serum-starved cells, and BrdU included during the period equivalent to the second round of the cell cycle after mitogen addition. Orlistat inhibited proliferation induced by complete endothelial medium (containing a undefined mixture of mitogens), by bFGF and by VEGF. […] Cell proliferation was measured by incorporation of BrdU. HUVEC were seeded in 96 well plates at a density of 2000 cells/well and cultured in Endothelial Growth medium (EGM; Clonetics, Walkerville, Md.) for 24 h at 37° C. Cells were serum-starved for further 24 h in Endothelial Basal Medium (EBM; Clonetics, Walkerville, Md.)+0.2% FCS. Medium was replaced with orlistat (40-0 uM) diluted in (A) EGM, (B) EBM+2% FCS+bFGF (5 ng/ml), (C) EBM+2% FCS+VEGF (20 ng/ml) or (D) EBM+0.2% FCS. Cells were incubated 48 h at 37 deg C., with BrdU present during the final 24 h. Medium was removed, the cell monolayers fixed, and BrdU incorporation measured by ELISA. Proliferation was expressed as a percentage of that measured in the absence of orlistat.
For orientation: Dividing cells build labelled thymidine or BrdU into new DNA.

The test system of the next assay is MDA-MB-435 cells. The assay is described as follows: Apoptosis by DNA fragmentation ELISA. The conditions noted are these: Homo sapiens, MDA-MB-435, read-out: half-maximal apoptotic response. (An ELISA detects its analyte on a solid surface through an enzyme-linked reagent.)
Another assay has as its system normal HMECs. The assay is described as follows: Apoptosis by DNA fragmentation ELISA.
The test system of assay [3] is cellular fatty acid synthesis in MDA-MB-435 cells. As to the kind of experiment: [14C]-acetate incorporation into cellular fatty acids, MDA-MB-435 cells. The note with it: MDA-MB-435, 100 μM.
Procedure: Cells were seeded at density of 2.5×10^4 cells/well in 24-well plates. Prior to the addition of orlistat, the wells were washed twice with PBS. Serum-free RPMI containing 300 μg/ml BSA and insulin/transferrin/selenium supplement was added to the wells, with or without orlistat. The cells were incubated for two hours prior to the addition of 1 μCi of [^14C]-acetate to label newly synthesized fatty acids. After two hours, the labeling medium was removed and the cells were washed with PBS/EDTA and trypsinized The cells pellets were washed twice more with PBS and fatty acids were extracted by the addition of an equal mixture of chloroform-methanol for 30 minutes. The extracted material was dried under a stream of N2 gas and extracted further with water-saturated butanol. The butanol was removed by drying under a stream of N2 gas and labeled fatty acids were detected by scintillation counting.
MDA-MB-435 cells were fed [^14C]-acetate as a precursor, and treated with orlistat.
For assay [4], the system named is hydrolase expressed at 28 kDa. The assay is described as follows: FP-TAMRA labeling of serine hydrolases in mammary cell lysates. It is filed as biochemical, human. Here is the method:
(§1) The serine hydrolase activity profiles of the prostate cell lines were measured using the fluorophosphonate probe fp-PEG-TAMRA using methods described previously (Liu et al., supra; Kidd et al., supra). Briefly, 40 μl of a 1 mg/ml solution of the soluble fractions of each cell lines were treated with 2 μM fp-PEG-TAMRA for one hour at ambient temperature. The labeling reactions were stopped by the addition of Laemmli buffer followed by boiling for 5 minutes. As a control for non-specific reaction of the probe, a duplicate sample was boiled for ten minutes prior to labeling with fp-PEG-TAMRA to denature all enzymatic activity. The labeled samples were resolved by 10% SDS-PAGE and visualized by scanning with a Hitachi flatbed scanner at 605 nm.
(§2) Ebelactone A and B stocks were made in DMSO. Orlistat was made in EtOH. Cell lysate were generated at 1 mg/ml as described above. Samples (40 μg) were incubated with inhibitors for twenty minutes prior to addition of fp-PEG-TAMRA. The final concentration of DMSO or EtOH in each reaction was 10%. The labeling reactions were stopped by the addition of Laemmli sample buffer and samples were resolved on 10% SDS-PAGE and visualized.
(§3) Labeling of serine hydrolases in the cell lysates with FP-TAMRA was challenged with each of the beta-lactones Inhibition experiments were performed under pre-steady state conditions, so that relative IC50 values could be compared. […] Tetrahydrolipstatin is selective for the hydrolase at 270 kDa that is expressed in breast cancer cell lines.

Assay [5] concerns hydrolase migrating at 31 kDa. The description is as above. Type of assay: biochemical, human. The protocol:
as §1, §2, §3

Where [6] appears, read: recombinant FAS TE, 4-MUH substrate, 30 min pre-incubation at 37 deg.C, read-out: apparent Ki.

Where two headings read alike, the source gives them in different places.

T1 sequence (P49327 2207-2511 limits assumed): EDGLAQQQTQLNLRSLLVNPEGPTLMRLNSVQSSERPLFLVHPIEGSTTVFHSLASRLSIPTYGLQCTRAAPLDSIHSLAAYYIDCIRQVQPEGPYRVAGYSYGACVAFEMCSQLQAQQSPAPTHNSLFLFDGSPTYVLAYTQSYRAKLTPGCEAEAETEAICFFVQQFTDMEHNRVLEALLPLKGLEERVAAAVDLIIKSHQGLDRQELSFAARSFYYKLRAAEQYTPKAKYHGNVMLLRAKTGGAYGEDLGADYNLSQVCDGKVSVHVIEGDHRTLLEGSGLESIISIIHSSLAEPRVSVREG

In the case of `CCCCC[C@@H]1OC(=O)[C@@H]1CCCC` (stereo in doubt) [3a, (3R,4S)-3-butyl-4-pentyloxetan-2-one], in assay [1] (setting [6]), the Ki is 23.1 ± 4.2 µM. On to `O=C1O/C(=C\CC2CCCCC2)[C@@H]1CC1CCCCC1` [2c], for which the Ki in assay [1] (setting [6]) is > 100 µM. With `O=C1O/C(=C\Cc2ccccc2)[C@@H]1Cc1ccccc1` [2d], the Ki in assay [1] (setting [6]) was found to be 5.04 ± 2.1 µM.

As to `O=C1O[C@H](CCC2CCCC2)[C@@H]1CC1CCCC1` [3b], the Ki in assay [1] (setting [6]) is 13.5 ± 7.8 µM. Same read-out and setting: in the case of `O=C1O[C@H](CCC2CCCCC2)[C@@H]1CC1CCCCC1` [3c] it was 7.7 ± 0.43 µM; in that of `O=C1O[C@H](CCc2ccccc2)[C@@H]1Cc1ccccc1` [3d], 2.5 ± 0.47 µM; in that of `COC(=O)CC[C@H]1OC(=O)[C@H]1CC(=O)OC` [3e], > 100 µM. Same read-out and setting: in the case of `CCCCC[C@@H]1OC(=O)[C@]1(C)CCCC` [8a, (3R,4S)-3-butyl-3-methyl-4-pentyloxetan-2-one] it was 14.6 ± 4 µM; in that of `CCCCC[C@@H]1OC(=O)[C@@]1(CCCC)Cc1ccccc1` [8b, (3S,4S)-3-benzyl-3-butyl-4-pentyloxetan-2-one], 19.2 ± 0.36 µM.

Regarding `CCCCCCCCCCC[C@@H](C[C@@H]1OC(=O)[C@H]1CCCCCC)OC(=O)[C@H](CC(C)C)NC=O` [Orlistat, tetrahydrolipstatin], in assay [2], the “reduction of total cellular fatty acid synthesis” value is listed as “approximately 70%”. For the same compound, the values for the IC50 with HUVEC (VEGF), in the assay on HUVEC (bFGF) and in the assay with HUVEC (complete medium) were 1.25 µM, 1 µM and 4 µM, respectively. The “concentration at which maximum inhibition of proliferation was achieved” value in the assay on HUVEC (complete medium, bFGF or VEGF) is ≥ 10 µM. Moreover, the “maximum inhibition of proliferation” value is listed as ~80% with HUVEC (stimulated with VEGF), ~90% with HUVEC (stimulated with bFGF) and ~90% in the assay with HUVEC (stimulated with complete medium). In addition, the EC50 with MDA-MB-435 cells is ~4 µM. For the same compound, in the assay on normal HMECs, the “apoptotic response across a range of orlistat” value was “No effect”. Moreover, in assay [3], the “reduction of incorporation of [14C]-acetate into cellular fatty acids” value is reported as “approximately 70%”. As for `CC[C@H](C)[C@@H](O)[C@H](C)C(=O)[C@H](C)/C=C(\C)C[C@H](C)C1OC(=O)[C@H]1C` (some centres unmarked) [ebelactone A], the “inhibition of labeling of 28 kDa hydrolase” value in assay [4] was “potent inhibitor”. Also, in assay [5], the “inhibition of labeling of 31 kDa hydrolase” value was “far less effective”. With `CC[C@@H]1C(=O)OC1[C@@H](C)C/C(C)=C/[C@@H](C)C(=O)[C@@H](C)[C@H](O)[C@@H](C)CC` (some centres unmarked) [ebelactone B], the “inhibition of labeling of 28 kDa hydrolase” value in assay [4] was “little effect”. Further, the “inhibition of labeling of 31 kDa hydrolase” value in assay [5] was “abolished labeling”. On to `CCCCC[C@H]1OC(=O)[C@@H]1CCCC` [trans-3a, (3R,4R)-3-butyl-4-pentyloxetan-2-one], for which the Ki in assay [1] (setting [6]) was 4.01 ± 1.9 µM.

For `O=C1O[C@H](CCc2ccccc2)[C@H]1Cc1ccccc1` [trans-3d], in assay [1], the Ki was determined as 3.3 ± 0.2 µM.
